# Assay results from PMC7904550, “Application of grouping and read-across for the evaluation of parabens of different chain lengths with a particular focus on endocrine properties” (Archives of Toxicology, 2021).
# What was measured:
# rats = assay: Genetic toxicity in vivo (rats); set-up: species or system rat; conditions: in vivo OECD TG 478 overriding in vitro OECD TG 473
# Wistar rats = assay: Extended one-generation reproductive toxicity study (OECD TG 443); type: in vivo, rat; conditions: for NOAEL, EOGRTS: developmental and reproductive toxicity: OECD 443 v 2018, oral gavage
# Description: Healthy and specific pathogen-free male and female (non-pregnant and nulliparous) Wistar Crl: WI(Han) rats were obtained from Charles River Laboratories (Germany). […] Upon arrival at BSL BIOSERVICE, the animals underwent an acclimatisation period of at least 5 days, and they were approximately 15–16 weeks old at the onset of the treatment period.
# mammalian cells = conditions: OECD 476; ref ECHA dissemination portal; cited from earlier work
smiles,measurement,setting,value
"COC(=O)c1ccc(O)cc1 [Methyl paraben, Methyl 4-hydroxybenzoate]",Overall WoE conclusion on genotoxicity,rats,"[d] While methyl paraben exhibited in vitro clastogenicity with metabolic activation in an OECD TG 473 study, absence of in vivo clastogenicity in an OECD TG 478 study is overriding in the WoE evaluation so that the overall WoE conclusion is absence of genotoxicity"
same,Developmental immunotoxicity (DIT),Wistar rats; DIT cohort,did not exhibit
same,Developmental neurotoxicity (DNT),Wistar rats; DNT cohort,did not exhibit DNT
same,"NOAEL, EOGRTS: developmental and reproductive toxicity",Wistar rats,NOAEL: 1000 (OECD 443; v 2018) mg/kg body weight/day
same,"NOAEL, EOGRTS: developmental and reproductive toxicity",Wistar rats; listed as methyl paraben,1000 mg/kg body weight/day
same,Accessory sex organs HP,"Wistar rats; P0, F1, (F2)",NAE / NAE
same,Adrenals HP,"Wistar rats; P0, F1, (F2)",NAE / NAE
same,Adrenals weight,"Wistar rats; P0, F1, (F2)",NAE / NAE
same,Age at balano-preputial separation,"Wistar rats; P0, F1, (F2)",NAE / NAE
same,Age at vaginal opening,"Wistar rats; P0, F1, (F2)",NAE / NAE
same,Anogenital distance,"Wistar rats; P0, F1, (F2)",NAE / NAE
same,Auditory startle,"Wistar rats; P0, F1, (F2)",NAE / NAE
same,Brain HP,"Wistar rats; P0, F1, (F2)",NAE / NAE
same,Brain morphometric evaluation,"Wistar rats; P0, F1, (F2)",NAE / NAE
same,Brain weight,"Wistar rats; P0, F1, (F2)",NAE / NAE
same,Cervix HP,"Wistar rats; P0, F1, (F2)",NAE / NAE
same,Coagulating gland HP,"Wistar rats; P0, F1, (F2)",NAE / NAE
same,Coagulating gland weight,"Wistar rats; P0, F1, (F2)",NAE / NAE
same,Colloid area (thyroid HP),"Wistar rats; P0, F1, (F2)",NAE / NAE
same,Dystocia,"Wistar rats; P0, F1, (F2)",NAE / NAE
same,Epididymis HP,"Wistar rats; P0, F1, (F2)",NAE / NAE
same,Epididymis weight,"Wistar rats; P0, F1, (F2)",NAE / NAE
same,Fertility,"Wistar rats; P0, F1, (F2)",NAE / NAE
same,Foetal development,"Wistar rats; P0, F1, (F2)",NAE / NAE
same,Functional observation battery,"Wistar rats; P0, F1, (F2)",NAE [h] / NAE
same,Gestation length,"Wistar rats; P0, F1, (F2)",NAE / NAE
same,Litter size,"Wistar rats; P0, F1, (F2)",NAE / NAE
same,Litter viability,"Wistar rats; P0, F1, (F2)",NAE / NAE
same,Liver weight,"Wistar rats; P0, F1, (F2)",NAE / NAE
same,Mammary gland HP; females,"Wistar rats; P0, F1, (F2)",NAE / NAE
same,Mammary gland HP; males,"Wistar rats; P0, F1, (F2)",NAE / NAE
same,Motor activity,"Wistar rats; P0, F1, (F2)",NAE / NAE
same,Nipple development,"Wistar rats; P0, F1, (F2)",NAE / NAE
same,"No. of implantations, corpora lutea","Wistar rats; P0, F1, (F2)",NAE / NAE
same,No. of live births,"Wistar rats; P0, F1, (F2)",NAE / NAE
same,No. of ovarian follicles,"Wistar rats; P0, F1, (F2)",NAE / NAE
same,Oestrus cyclicity,"Wistar rats; P0, F1, (F2)",NAE / NAE
same,Offspring: learning & memory,"Wistar rats; P0, F1, (F2)",NAE / NAE
same,Ovary HP,"Wistar rats; P0, F1, (F2)",NAE / NAE
same,Ovary weight,"Wistar rats; P0, F1, (F2)",NAE / NAE
same,Oviduct HP,"Wistar rats; P0, F1, (F2)",NAE / NAE
same,Pituitary HP,"Wistar rats; P0, F1, (F2)",NAE / NAE
same,Pituitary weight,"Wistar rats; P0, F1, (F2)",NAE / NAE
same,Postimplantation loss,"Wistar rats; P0, F1, (F2)",NAE / NAE
same,"Presence of anomalies (external, visceral, skeletal)","Wistar rats; P0, F1, (F2)",NAE / NAE
same,Prostate HP,"Wistar rats; P0, F1, (F2)",NAE / NAE
same,Prostate weight,"Wistar rats; P0, F1, (F2)",NAE / NAE
same,Pup development,"Wistar rats; P0, F1, (F2)",NAE / NAE
same,Reproduction,"Wistar rats; P0, F1, (F2)",NAE / NAE
same,Seminal vesicles HP,"Wistar rats; P0, F1, (F2)",NAE / NAE
same,Seminal vesicles weight,"Wistar rats; P0, F1, (F2)",NAE / NAE
same,Sperm morphology,"Wistar rats; P0, F1, (F2)",NAE / NAE
same,Sperm motility,"Wistar rats; P0, F1, (F2)",NAE / NAE
same,Sperm numbers,"Wistar rats; P0, F1, (F2)",NAE / NAE
same,Testis HP,"Wistar rats; P0, F1, (F2)",NAE / NAE
same,Testis weight,"Wistar rats; P0, F1, (F2)",NAE / NAE
same,Thyroid HP,"Wistar rats; P0, F1, (F2)",NAE / NAE
same,Thyroid stimulating hormone level,"Wistar rats; P0, F1, (F2)",NAE / NAE
same,Thyroid weight,"Wistar rats; P0, F1, (F2)",NAE / NAE
same,Time to mating,"Wistar rats; P0, F1, (F2)",NAE / NAE
same,Triiodothyronine / thyroxine level,"Wistar rats; P0, F1, (F2)",NAE / NAE
same,Uterus HP (with cervix),"Wistar rats; P0, F1, (F2)",NAE / NAE
same,Uterus weight (with cervix),"Wistar rats; P0, F1, (F2)",NAE / NAE
same,Vagina HP,"Wistar rats; P0, F1, (F2)",NAE / NAE
same,Vaginal smears,"Wistar rats; P0, F1, (F2)",NAE / NAE
same,Alterations of the parameters addressed in OECD TG 443,Wistar rats; up to 1000 mg/kg bw/day,no toxicologically relevant alterations
same,Mutagenicity in mammalian cells classification,mammalian cells,Not mutagenic [c] (OECD 476; 2019)
